Assay [1] deals with mutated isocitrate dehydrogenase (mIDH) protein overexpressed in LN229 R132H cells (Homo sapiens (Human), UniProt O75874, R132H). Description: Mutant IDH1 cellular assay (2-HG in medium of LN229 R132H cells). The format is cell-based. As to conditions: 24 hours, fluorescence readout. Here is the method:
Mutant IDH1 Cellular Assay
Levels of (2R)-2-hydroxyglutarate (2HG) were measured in medium of a cell line with overexpression of mutated isocitrate dehydrogenase (mIDH) protein. mIDH catalyzes the NADPH-dependent reduction of alpha-ketoglutarate to 2-HG. Cells (LN229 R132H, Mohrenz et al., Apoptosis (2013) 18:1416-1425) were grown in DMEM containing 10% FCS. They were harvested by trypsin and seeded into 96-well plates. Cells were incubated overnight at 37° C. in 5% CO2. The next day test compounds were added to each cell well. The final concentration of DMSO was 0.1% and DMSO controls were included. The plates were then placed in an incubator for 24 hours.
2-HG was measured according to Balss et al. (Acta Neuropathol (2012) 124: 883-891). Briefly, HClO4 was added to each well and the plates were centrifuged. Aliquots are removed and incubated with hydroxyglutarate dehydrogenase (HGDH), diaphorase, NAD+, and resazurin. The conversion of resazurin to resorufin was detected by fluorescence spectroscopy at Ex 540 nm Em 600 nm. The increase in fluorescence is proportional to 2-HG production. IC50 values are determined by interpolation from plots of relative fluorescence vs inhibitor concentration.

The target in assay [2] is IDH1 R132H enzyme (Homo sapiens (Human), UniProt O75874, R132H). The assay can be described thus: Mutant IDH1 R132H biochemical assay. As to conditions: NADPH consumption, luminescent readout; 1.5 nM enzyme, 250 μM α-KG, 1 μM NADPH, 30 minutes, 32° C.; test range 0.002-10 μM. As for the experimental part: mIDH1 catalyzes the NADPH-dependent reduction of alpha-ketoglutarate (α-KG) to (2R)-2-hydroxyglutarate (2-HG). NADPH consumption was measured by luminescent readout.
Sequence of IDH1 R132H enzyme (O75874 whole entry R132H): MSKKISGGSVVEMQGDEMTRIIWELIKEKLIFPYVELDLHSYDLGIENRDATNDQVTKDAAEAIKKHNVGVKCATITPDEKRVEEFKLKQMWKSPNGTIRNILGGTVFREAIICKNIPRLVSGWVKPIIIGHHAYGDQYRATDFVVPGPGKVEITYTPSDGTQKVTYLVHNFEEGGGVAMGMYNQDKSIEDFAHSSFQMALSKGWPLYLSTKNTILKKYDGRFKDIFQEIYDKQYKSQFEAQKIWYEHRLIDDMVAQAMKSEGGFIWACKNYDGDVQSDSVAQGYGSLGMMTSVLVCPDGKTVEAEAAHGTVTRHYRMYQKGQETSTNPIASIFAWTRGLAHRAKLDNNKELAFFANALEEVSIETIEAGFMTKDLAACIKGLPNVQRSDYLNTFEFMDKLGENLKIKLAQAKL
The biochemical reactions were performed at 32° C. in 384-well plates using a reaction volume of 41 μl and the following assay buffer conditions: 50 mM Tris pH 7.5, 100 mM NaCl, 20 mM MgCl2, 0.05% BSA, 0.01% Brij, 1 μM NADPH, and 250 μM α-KG. […] Test compounds were used in a concentration range between 0.002 and 10 μM. The final DMSO concentration was 2.4%.
The reaction was incubated for 30 minutes, then 40 μl of detection mix (0.75 μg/ml Luciferase, 0.02 U/ml Oxidoreductase, 4 μg/ml FMN, 2 μl/ml Decanal/Ethanol, 50 mM Tris pH 7.5, 0.5% Glycerin, 0.01% Tween-20, 0.05% BSA) was added. Luminescence was measured on a luminescent reader (10 seconds measuring time, 1 second integration period, 30% sensitivity). The decrease in luminescence is proportional to mIDH1 activity. IC50 values are determined by interpolation from plots of relative luminescence versus inhibitor concentration.

For 15 molecules, IC50 results are on record in patent publication US10137110B2, “1-cyclohexyl-2-phenylaminobenzimidazoles as mIDH1 inhibitors for the treatment of tumors” (Bayer Pharma Aktiengesellschaft, priority 2014, dated 2018).

Sequence of mutated isocitrate dehydrogenase (mIDH) protein overexpressed in LN229 R132H cells (O75874 whole entry R132H): as above

As to `Cc1n[nH]c(C)c1-c1ccc2c(c1)nc(Nc1ccc(SC(F)(F)F)cc1)n2[C@@H]1C[C@H](C)CC(C)(C)C1` (stereo in doubt) [Example 2-10-1], the IC50 in assay [1] came out at 10000 nM; in assay [2], 300 nM.
Consider `Cc1n[nH]c(C)c1-c1ccc2c(c1)nc(Nc1ccc(SC(F)(F)F)cc1)n2[C@H]1C[C@@H](C)CC(C)(C)C1` (stereo in doubt) [Example 2-10-2], for which the IC50 in assay [1] came out at 3000 nM; in assay [2], 140 nM.
As for `Cc1n[nH]c(C)c1-c1ccc2c(c1)nc(Nc1ccc(SC(F)(F)F)cc1)n2[C@@H]1C[C@H](C)CC(C)(C)C1` (stereo in doubt) [Example 2-10], the IC50 in assay [1] turned out to be 2000 nM; in assay [2], 140 nM.
In the case of `C[C@H]1C[C@@H](n2c(Nc3ccc(OC(F)(F)F)cc3)nc3cc(-c4cccc(C(N)=O)c4)ccc32)CC(C)(C)C1` (stereo in doubt) [Example 2-11], the IC50 in assay [1] amounted to 2800 nM; in assay [2] it was 210 nM.
For the molecule `Cc1cc(-c2ccc3c(c2)nc(Nc2ccc(OC(F)(F)F)cc2)n3[C@@H]2C[C@H](C)CC(C)(C)C2)n(C)n1` (stereo in doubt) [Example 2-12], the IC50 worked out at 8000 nM in assay [1] and 100 nM in assay [2].
The corresponding values for `C[C@H]1C[C@@H](n2c(Nc3ccc(OC(F)(F)F)cc3)nc3cc(-c4cnn(C)c4)ccc32)CC(C)(C)C1` (stereo in doubt) [Example 2-13] are 5000 nM and 1100 nM.
Regarding `Cc1nn(C)c(C)c1-c1ccc2c(c1)nc(Nc1ccc(OC(F)(F)F)cc1)n2[C@@H]1C[C@H](C)CC(C)(C)C1` (stereo in doubt) [Example 2-19], the concentration for half-maximal inhibition (IC50) came out at 10000 nM in assay [1] and 1900 nM in assay [2].
Take `Cc1noc(C)c1-c1ccc2c(c1)nc(Nc1ccc(SC(F)(F)F)cc1)n2[C@@H]1C[C@H](C)CC(C)(C)C1` (stereo in doubt) [Example 2-21-1]: the IC50 in assay [1] was 10000 nM; in assay [2], 1100 nM.
As to `Cc1noc(C)c1-c1ccc2c(c1)nc(Nc1ccc(SC(F)(F)F)cc1)n2[C@H]1C[C@@H](C)CC(C)(C)C1` (stereo in doubt) [Example 2-21-2], the IC50 in assay [1] was 2500 nM; in assay [2], 290 nM.
In the case of `C[C@H]1C[C@@H](n2c(Nc3ccc(SC(F)(F)F)cc3)nc3cc(-c4ccn[nH]4)ccc32)CC(C)(C)C1` (stereo in doubt) [Example 2-22], the IC50 in assay [1] turned out to be 2500 nM; in assay [2], 770 nM.
`Cc1noc(C)c1-c1ccc2c(c1)nc(Nc1ccc(C(F)(F)F)cc1)n2[C@H]1C[C@@H](C)CC(C)(C)C1` (stereo in doubt) [Example 2-23-2]: the IC50 in assay [1] amounted to 10000 nM; in assay [2], 180 nM.
The corresponding values for `Cc1n[nH]c(C)c1-c1ccc2c(c1)nc(Nc1ccc(C(F)(F)F)cc1)n2[C@H]1C[C@@H](C)CC(C)(C)C1` (stereo in doubt) [Example 2-24-2] are 7000 nM and 140 nM.
On to `Cc1nc(-c2ccc3c(c2)nc(Nc2ccc(OC(F)(F)F)cc2)n3C2CC(C)(C)CC(C)(C)C2)no1` [Example 2-26, 5-(5-Methyl-1,2,4-oxadiazol-3-yl)-1-(3,3,5,5-tetramethylcyclohexyl)-N-[4-(trifluoromethoxy)phenyl]-1H-benzimidazol-2-amine], for which the IC50 in assay [1] is 10000 nM; in assay [2], 220 nM.
Consider `CC1(C)CC(n2c(Nc3ccc(OC(F)(F)F)cc3)nc3cc(-c4nnn[nH]4)ccc32)CC(C)(C)C1` [Example 2-28, 1-(3,3,5,5-tetramethylcyclohexyl)-5-(1H-tetrazol-5-yl)-N-[4-(trifluoromethoxy)-phenyl]-1H-benzimidazol-2-amine], for which the IC50 in assay [1] turned out to be 200 nM; in assay [2], 70 nM.
Regarding `Cc1cc2c(cc1-c1c(C)n[nH]c1C)nc(Nc1ccc(OC(F)(F)F)cc1)n2C1CC(C)(C)CC(C)(C)C1` [Example 2-29, 5-(3,5-dimethyl-1H-pyrazol-4-yl)-6-methyl-1-(3,3,5,5-tetramethylcyclohexyl)-N-[4-(trifluoromethoxy)phenyl]-1H-benzimidazol-2-amine], the IC50 came out at 2700 nM in assay [1] and 4000 nM in assay [2].
